Results published in patent US20250041227A1, “TABLET FORMULATIONS OF RBP4 INHIBITORS AND METHODS OF USE” (BELITE BIO, INC, priority 2021, published 2025).

System: male cynomolgus monkeys
Experiment: In-life clinical observations (tolerability)
Format: in vivo
Conditions: single PO 5 mg/animal per phase, 6 phases
Text: The test system and study design were as follows. A total of 4 male non-naïve cynomolgus monkeys were assigned to the study (age: >2 years old and body weight: 2.5-4 kg). Each animal received a single dose of capsule or tablet at the start of each phase and there were 6 phases in total. The same animals, Animal Nos. C1001, C1002, C1003 and C1004, were used for each phase with a minimum 5-day washout period between dosing for each phase, except for Animal No. C1002, Animal Tattoo No. C1708339, which was replaced by another non-naïve cynomolgus monkey, Animal Tattoo No. C1703319, due to dosing failure that happened in Phase 3. As a result, Animal Tattoo No. C1708339 was used in Phase 1 and 2, Animal Tattoo No. C1703319 was used in Phases 3 to 6. All animals were fasted overnight prior to dosing, food was returned at 4 hours post-dose.
Animals were physically examined prior to study initiation to confirm their health. Clinical observations were performed twice daily (approximately 9:30 a.m. and 4:00 p.m.). Cage-side observations for general health and appearance were also performed. On dosing day, animals were also observed before and after each sample collection time point. General condition, behavior, activity, excretion, respiration or other unusual observations noted throughout the study were recorded.

## CC(=O)N1CCc2c(C(=O)N3CCC(c4ccc(F)c(F)c4C(F)(F)F)CC3)n[nH]c2C1 [Compound 1, 1-(3-(4-(3,4-difluoro-2-(trifluoromethyl)phenyl)piperidine-1-carbonyl)-1,4,5,7-tetrahydro-6H-pyrazolo[3,4-c]pyridin-6-yl)ethan-1-one]
  adverse effects during the in-life phase: No adverse effects were observed
